Assay results: patent EP1366052B1 (priority 2001, dated 2002)
Entries after “also recorded” stand apart in the source; their conditions may differ.

Experiments:
Sprague-Dawley rats = settings: rat, in vivo
male Sprague-Dawley rats = settings: rat, in vivo
weanling pigs = settings: pig, in vivo

SMILES | induction of fed pattern of gut motility (Sprague-Dawley rats) | food consumption (male Sprague-Dawley rats) | food consumption and weight gain (male Sprague-Dawley rats) | weight gain (male Sprague-Dawley rats) | emesis (weanling pigs) | food consumption in the AM meal following the AM treat (weanling pigs) | persistence of the effect on food consumption (weanling pigs) | duration of action (Sprague-Dawley rats) [min] | onset time after administration (Sprague-Dawley rats) [s] | delay before effect on the fasting pattern (Sprague-Dawley rats) | effect on fasting pattern of gut motility (Sprague-Dawley rats)
CC1=C[C@H]2O[C@@H]3[C@H](O)C[C@](C)([C@@]2(CO)[C@H](O)C1=O)[C@]31CO1 [DON, 3α,7α,15-trihydroxy-12,13-epoxy-trichothec-9-en-8-one] | induced the fed pattern | decrease | immediate and sustained reduction; also recorded: concentration-dependant reduction | decrease | some emesis | decreased food consumption | wore off by the next meal |  |  |  | 
C[C@@H]1C[C@H]2O[C@@H]3[C@H](O)C[C@](C)([C@]24COC(c2ccccc2)O[C@@H]4C1=O)[C@@]3(C)O (stereo partly drawn) [EN139522, 7α,15-benzylidene-9α,12β-dimethyl-3α,12α-dihydroxytrichothecan-8-one] | induce a classic fed pattern |  |  |  |  |  |  | 35 | 20 |  | 
C[C@@H]1C[C@H]2O[C@@H]3[C@H](O)C[C@](C)([C@]24COC(c2ccccc2)O[C@@H]4[C@@H]1O)[C@@]3(C)O (stereo partly drawn) [EN139502, 7α,15-benzylidene-9α,12β-dimethyltrichothecan-3α,8α,12α-triol] | did not induce the fed pattern |  |  |  |  |  |  |  |  | approximately 5 min | intensify or enhance the fasting pattern
